The results in this text go back to patent publication US20260049084A1, “ENPP1 MODULATORS AND PRODUCTS AND USES THEREOF” (Gossamer Bio Services, Inc., priority 2022, published 2026).

In test [1] the target is Recombinant human ENPP1 protein (Homo sapiens (Human), UniProt P22413). Nature of the test: ENPP1 cGAMP Biochemical Assay. The following applies: 0.5 nM ENPP1, 1000 nM 2′3′-cGAMP substrate, TR-FRET. In outline: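 Recombinant human ENPP1 (final 0.5 nM) preincubated with compound 30 min at room temperature in 50 mM Tris pH 7.5, 1 mM TCEP, 2 mM MgCl2, 0.005% Tween20; 2′3′-cGAMP (1000 nM final) added, 60 min at 25 °C. AMP/GMP product detected by TR-FRET antibody/tracer competition (2 nM), 120 min.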
Chain of Recombinant human ENPP1 protein (P22413 whole entry): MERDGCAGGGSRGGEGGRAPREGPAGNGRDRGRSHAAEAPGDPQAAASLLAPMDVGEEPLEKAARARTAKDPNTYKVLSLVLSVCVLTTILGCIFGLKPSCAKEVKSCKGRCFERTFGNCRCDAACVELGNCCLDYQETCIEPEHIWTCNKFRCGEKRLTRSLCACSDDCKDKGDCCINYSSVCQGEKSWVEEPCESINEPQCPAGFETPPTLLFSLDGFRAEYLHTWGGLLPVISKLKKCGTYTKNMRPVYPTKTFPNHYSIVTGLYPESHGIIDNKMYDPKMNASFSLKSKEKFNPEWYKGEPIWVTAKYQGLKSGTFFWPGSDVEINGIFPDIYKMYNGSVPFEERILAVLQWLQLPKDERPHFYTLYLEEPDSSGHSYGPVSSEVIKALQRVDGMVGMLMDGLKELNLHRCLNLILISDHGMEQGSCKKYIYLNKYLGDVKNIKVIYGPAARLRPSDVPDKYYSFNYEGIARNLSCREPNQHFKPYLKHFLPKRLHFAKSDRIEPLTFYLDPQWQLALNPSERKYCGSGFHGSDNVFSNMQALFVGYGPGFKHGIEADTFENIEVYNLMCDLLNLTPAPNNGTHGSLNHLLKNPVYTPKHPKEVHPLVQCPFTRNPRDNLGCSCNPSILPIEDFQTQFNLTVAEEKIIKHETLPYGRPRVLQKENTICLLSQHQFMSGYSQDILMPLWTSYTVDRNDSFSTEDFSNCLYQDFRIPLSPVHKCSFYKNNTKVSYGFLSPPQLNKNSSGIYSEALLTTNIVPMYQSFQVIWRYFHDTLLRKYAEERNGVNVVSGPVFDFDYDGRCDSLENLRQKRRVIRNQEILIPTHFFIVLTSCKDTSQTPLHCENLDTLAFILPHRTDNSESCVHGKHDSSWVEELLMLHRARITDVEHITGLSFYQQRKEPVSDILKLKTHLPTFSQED
In general terms: Time-resolved FRET reads energy transfer from a long-lived donor to a nearby acceptor.

Test [2] deals with Recombinant human ENPP3 protein (Homo sapiens (Human), UniProt O14638). Nature of the test: ENPP3 cGAMP Biochemical Assay. The following applies: 70.5 nM ENPP3, 120 μM 2′3′-cGAMP substrate, TR-FRET. An outline of the steps:
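Compound was preincubated 30 min at room temperature with recombinant human ENPP3 (final 70.5 nM) in Tris pH 7.5 with Mg, Ca, Zn and TCEP. 2′3′-cGAMP (120 μM final) was then hydrolysed for 60 min at 25 °C. AMP/GMP product was detected by TR-FRET tracer-displacement immunoassay after 120 min.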

The target of test [3] is carbonic anhydrase I enzyme (Homo sapiens (Human), UniProt P00915). Nature of the test: Carbonic Anhydrase 1 Enzymatic Assay. Format: biochemical. The conditions noted are these: enzyme from human erythrocyte, 500 μM 4-nitrophenyl acetate, absorbance 400 nm; read-out: CA I IC50. As for the experimental part: Carbonic Anhydrase 1 Enzymatic Assay
Chain of carbonic anhydrase I enzyme (P00915 whole entry): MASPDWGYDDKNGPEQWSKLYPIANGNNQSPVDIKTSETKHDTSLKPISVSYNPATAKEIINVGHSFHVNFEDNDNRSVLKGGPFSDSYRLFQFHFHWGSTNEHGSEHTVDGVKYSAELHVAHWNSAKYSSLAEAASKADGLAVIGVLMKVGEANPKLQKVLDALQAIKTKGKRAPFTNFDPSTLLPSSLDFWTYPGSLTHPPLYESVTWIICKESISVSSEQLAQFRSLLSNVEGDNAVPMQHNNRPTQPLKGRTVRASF
Test compound and/or vehicle was preincubated with carbonic anhydrase I enzyme (15 μg/ml) isolated from human erythrocyte in reaction buffer (50 mM MOPS solution pH 7.5) for 15 minutes at 25° C. The reaction was initiated by addition of 500 μM 4-nitrophenyl acetate and incubated for 30 minutes. The plate was read on a spectrophotometer (Absorbance: 400 nm)

Test [4] concerns the target carbonic anhydrase II enzyme (Homo sapiens (Human), UniProt P00918). Kind of test: Carbonic Anhydrase 2 Enzymatic Assay. Format: biochemical. The following applies: enzyme from human erythrocyte, 500 μM 4-nitrophenyl acetate, absorbance 400 nm; read-out: CA II IC50. Here is the method: Carbonic Anhydrase 2 Enzymatic Assay
Test compound and/or vehicle was preincubated with carbonic anhydrase II enzyme (15 μg/ml) isolated from human erythrocyte in reaction buffer (50 mM MOPS solution pH 7.5) for 15 minutes at 25° C. The reaction was initiated by addition of 500 μM 4-nitrophenyl acetate and incubated for 30 minutes. The plate was read on a spectrophotometer (Absorbance: 400 nm)

Chain of Recombinant human ENPP3 protein (O14638 whole entry): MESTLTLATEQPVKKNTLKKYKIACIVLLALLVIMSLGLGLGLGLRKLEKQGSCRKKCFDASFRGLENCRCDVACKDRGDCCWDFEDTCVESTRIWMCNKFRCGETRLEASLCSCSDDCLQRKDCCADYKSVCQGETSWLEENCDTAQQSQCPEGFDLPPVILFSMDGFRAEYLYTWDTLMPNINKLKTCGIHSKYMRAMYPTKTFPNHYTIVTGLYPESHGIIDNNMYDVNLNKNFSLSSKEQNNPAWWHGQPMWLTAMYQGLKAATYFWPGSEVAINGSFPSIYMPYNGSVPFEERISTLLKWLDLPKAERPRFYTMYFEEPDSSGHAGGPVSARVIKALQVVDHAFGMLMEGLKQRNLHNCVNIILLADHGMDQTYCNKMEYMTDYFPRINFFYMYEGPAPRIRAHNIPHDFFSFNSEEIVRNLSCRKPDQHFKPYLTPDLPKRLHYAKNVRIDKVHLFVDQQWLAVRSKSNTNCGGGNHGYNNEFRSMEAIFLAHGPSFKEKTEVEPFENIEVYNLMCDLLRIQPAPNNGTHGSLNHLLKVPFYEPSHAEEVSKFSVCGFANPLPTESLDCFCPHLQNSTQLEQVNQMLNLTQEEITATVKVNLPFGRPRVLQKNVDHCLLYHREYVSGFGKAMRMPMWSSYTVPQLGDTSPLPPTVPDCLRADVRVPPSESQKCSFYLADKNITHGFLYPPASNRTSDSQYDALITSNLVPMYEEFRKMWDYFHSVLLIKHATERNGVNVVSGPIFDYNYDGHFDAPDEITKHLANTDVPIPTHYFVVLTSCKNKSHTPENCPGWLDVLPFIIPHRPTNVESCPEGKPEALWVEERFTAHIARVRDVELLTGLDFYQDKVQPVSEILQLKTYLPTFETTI

On to `CCn1ncc2c(NCC3CCN(S(=N)(N)=O)CC3)ccnc21` (centres unmarked) [Compound 1A, 4-(((1-ethyl-1H-pyrazolo[3,4-b]pyridin-4-yl)amino)methyl)piperidine-1-sulfonimidamide], for which the IC50 was 0.01 to 0.1 µM in test [1], 0.1 to 1 µM in test [2], 0.1 to 1 µM in test [3] and ≥ 1 µM in test [4].
Consider `N=S(N)(=O)c1ccc(CNc2ccnc3[nH]nc(-c4ccccc4)c23)cc1` (centres unmarked) [Compound 1B, 4-(((3-phenyl-1H-pyrazolo[3,4-b]pyridin-4-yl)amino)methyl)benzenesulfonimidamide], for which the 50% inhibitory concentration (IC50) in test [1] is 0.01 to 0.1 µM; in test [2], 0.01 to 0.1 µM; in test [3] it was 0.1 to 1 µM; in test [4] it was 0.1 to 1 µM.
As for `CCn1ncc2c(NCc3ccc(S(=N)(N)=O)cc3)ccnc21` (centres unmarked) [Compound 2A, 4-(((1-ethyl-1H-pyrazolo[3,4-b]pyridin-4-yl)amino)methyl)benzene sulfonimidamide], the IC50 in test [1] was 0.01 to 0.1 µM; in test [2], ≥ 1 µM; in test [3] it was 0.1 to 1 µM; in test [4] it was ≥ 1 µM.
Take `CCn1nc(Br)c2c(NCc3ccc(S(=N)(N)=O)cc3)ccnc21` (centres unmarked) [Compound 2B, 4-(((3-bromo-1-ethyl-1H-pyrazolo[3,4-b]pyridin-4-yl)amino)methyl)benzenesulfonimidamide]: the 50% inhibitory concentration (IC50) was 0.01 to 0.1 µM in test [1], 0.1 to 1 µM in test [2], 0.01 to 0.1 µM in test [3] and ≥ 1 µM in test [4].
For `CCn1ncc2c(NCc3ccc(S(N)(=O)=NC)cc3)ccnc21` (centres unmarked) [Compound 3A, 4-(((1-ethyl-1H-pyrazolo[3,4-b]pyridin-4-yl)amino)methyl)-N′-methylbenzenesulfonimidamide], the IC50 in test [1] was 0.1 to 1 µM; in test [2], ≥ 1 µM; in test [3], ≥ 1 µM; in test [4] it was ≥ 1 µM.
Turning to `CCn1ncc2c(NCC3CCN(S(C)(=N)=O)CC3)ccnc21` (centres unmarked) [Compound 4A, 1-ethyl-N-((1-(S-methylsulfonimidoyl)piperidin-4-yl)methyl)-1H-pyrazolo[3,4-b]pyridin-4-amine], the IC50 in test [2], in test [3] and in test [4] was ≥ 1 µM in each case.
For `CCn1ncc2c(NCc3ccc(S(N)(=O)=NC#N)cc3)ccnc21` (centres unmarked) [Compound 12G, N′-cyano-4-(((1-ethyl-1H-pyrazolo[3,4-b]pyridin-4-yl)amino)methyl)benzenesulfonimidamide], the results for the 50% inhibitory concentration (IC50) in test [2], in test [3] and in test [4] were 0.1 to 1 µM, ≥ 1 µM and ≥ 1 µM, respectively.
Consider `N#CCn1nc(Cl)c2c(NCc3ccc(S(N)(=O)=NC#N)cc3)ccnc21` (centres unmarked) [Compound 12H, 4-(((3-chloro-1-(cyanomethyl)-1H-pyrazolo[3,4-b]pyridin-4-yl)amino)methyl)-N′-cyanobenzenesulfonimidamide], for which the IC50 in test [1] is < 0.01 µM; in test [2] it was < 0.01 µM; in test [3] it was 0.1 to 1 µM; in test [4] it was ≥ 1 µM.
For `C#CCn1nc(Cl)c2c(NCc3ccc(S(N)(=O)=NC#N)cc3)ccnc21` (centres unmarked) [Compound 12I, 4-(((3-chloro-1-(prop-2-yn-1-yl)-1H-pyrazolo[3,4-b]pyridin-4-yl)amino)methyl)-N′-cyanobenzenesulfonimidamide], the IC50 in test [1] was < 0.01 µM; in test [2], < 0.01 µM; in test [3], 0.1 to 1 µM; in test [4] it was ≥ 1 µM.
Take `C#CCn1nc(Cl)c2c(NCc3ccc([S@](=N)(=O)NC#N)cc3)ccnc21` [Compound 12J, (R)-4-(((3-chloro-1-(prop-2-yn-1-yl)-1H-pyrazolo[3,4-b]pyridin-4-yl)amino)methyl)-N-cyanobenzenesulfonimidamide]: the IC50 in test [1] was < 0.01 µM; in test [2] it was < 0.01 µM; in test [3], 0.1 to 1 µM; in test [4], ≥ 1 µM.
For `C#CCn1nc(Cl)c2c(NCc3ccc([S@@](=N)(=O)NC#N)cc3)ccnc21` [Compound 12K, (S)-4-(((3-chloro-1-(prop-2-yn-1-yl)-1H-pyrazolo[3,4-b]pyridin-4-yl)amino)methyl)-N-cyanobenzenesulfonimidamide], the IC50 in test [1] was < 0.01 µM; in test [2] it was < 0.01 µM; in test [3], 0.1 to 1 µM; in test [4] it was 0.1 to 1 µM.
On to `CCn1nc(Cl)c2c(NCC3CCN(S(=N)(=O)CCC#N)CC3)ccnc21` (centres unmarked) [Compound 14E, 3-(4-(((3-chloro-1-ethyl-1H-pyrazolo[3,4-b]pyridin-4-yl)amino)methyl)piperidine-1-sulfonimidoyl)propanenitrile], for which the IC50 in test [1] was 0.01 to 0.1 µM; in test [2], ≥ 1 µM; in test [3], ≥ 1 µM; in test [4], ≥ 1 µM.
For `C#CCn1nc(Cl)c2c(NCC3CCN(S(N)(=O)=NC)CC3)ccnc21` (centres unmarked) [Compound 15D, 4-(((3-chloro-1-(prop-2-yn-1-yl)-1H-pyrazolo[3,4-b]pyridine-4-yl)amino)methyl)-N′-methylpiperidine-1-sulfonimidamide], the IC50 is < 0.01 µM in test [1], 0.01 to 0.1 µM in test [2], ≥ 1 µM in test [3] and ≥ 1 µM in test [4].
Take `N#CCn1nc(Cl)c2c(NCC3CCN([S@@](N)(=O)=NC#N)CC3)ccnc21` [Compound 15E, (S)-4-(((3-chloro-1-(cyanomethyl)-1H-pyrazolo[3,4-b]pyridine-4-yl)amino)methyl)-N′-cyanopiperidine-1-sulfonimidamide]: the IC50 in test [1] was < 0.01 µM; in test [2], < 0.01 µM; in test [3] it was 0.1 to 1 µM; in test [4] it was ≥ 1 µM.
Take `N#CCn1nc(Cl)c2c(NCC3CCN([S@](N)(=O)=NC#N)CC3)ccnc21` [Compound 15F, (R)-4-(((3-chloro-1-(cyanomethyl)-1H-pyrazolo[3,4-b]pyridin-4-yl)amino)methyl)-N′-cyanopiperidine-1-sulfonimidamide]: the IC50 is < 0.01 µM in test [1], < 0.01 µM in test [2], 0.1 to 1 µM in test [3] and 0.1 to 1 µM in test [4].
For the compound `CN=[S@@](N)(=O)N1CCC(CNc2ccnc3c2c(Cl)nn3CC#N)CC1` [Compound 15H, (R)-4-(((3-chloro-1-(cyanomethyl)-1H-pyrazolo[3,4-b]pyridin-4-yl)amino)methyl)-N′-methylpiperidine-1-sulfonimidamide], the half-maximal inhibitory concentration (IC50) was < 0.01 µM in test [1], 0.1 to 1 µM in test [2], ≥ 1 µM in test [3] and ≥ 1 µM in test [4].

The IC50 is the concentration that gives 50% inhibition.
